According to patent US5939414A, “Benzodiazepine hydrazide derivatives as inhibitors of HIV integrase” (Merck & Co., Inc., priority 1997, dated 1999):

Key:
HIV integrase = molecular target: T1, HIV integrase (Human immunodeficiency virus type 1 group M subtype B, UniProt P04585); assay: Inhibition of strand transfer by HIV integrase; assay type: biochemical
T1 construct: HIV Integrase
Description: Assay for Inhibition of Strand Transfer by HIV Integrase
Inhibition of strand transfer was conducted according to Hazuda, D. J. et al. Nucleic Acids Res., 22, 1121 (1994), hereby incorporated by reference for these purposes.

HIV-1 integrase [1] = molecular target: T2, HIV-1 integrase (Human immunodeficiency virus type 1 group M subtype B, UniProt P04585); assay: Assembly of HIV-1 integrase as catalytically active complex; assay type: biochemical; design: HIV-1 Integrase
Description: Assay for Assembly of HIV-1 Integrase as Catalytically Active Complex
Inhibition of assembly of HIV-1 Integrase was conducted according to Wolfe, A. L. et al., J. Virol. 70, 1424 (1996), herein incorporated by reference for these purposes.

HIV-1 integrase [2] = molecular target: T2, HIV-1 integrase; assay: biochemical; design: HIV-1 integrase
Description: HIV Integrase Assay: Substrate Cleavage
An assay for trimming of 3' end of HIV long terminal repeat terminus by HIV-1 integrase was conducted according to LaFemina, E. R. et al., J. Virol. 10, 5624 (1991), herein incorporated by reference for these purposes. To assay inhibition of HIV integrase substrate cleavage, the reaction was conducted with inhibitor having various concentrations in the range of 0.1 to 100 μM.

| Structure (SMILES) | IC50 (HIV integrase) [µM] | IC50 (HIV-1 integrase [1]) [µM] | IC50 (HIV-1 integrase [2]) [µM] |
| --- | --- | --- | --- |
| Cc1[nH]cnc1C(=O)NNC1=Nc2ccc(Br)cc2C(c2ccccc2Cl)=NC1 [Compound VII] | 5 | 10 | 2 |
| O=C(NNC1=Nc2ccccc2C(c2ccccc2)=NC1)c1cnccn1 [Compound VI] | 2 to 3 | 5 | 2 |
